Measured values taken from patent US10517889B2, “Modulators of SMAD7 expression” (Ionis Pharmaceuticals, Inc., priority 2017, dated 2019).
Strand notation (5' to 3'): a small letter for the sugar, then the base; units joined by * are phosphorothioate-linked, units joined directly phosphodiester-linked; [ ] holds rarer units or linkages, { } end groups; capitals alone tell only the bases. e = 2'-O-(2-methoxyethyl) (MOE); [5mC] = 5-methylcytosine; d = 2'-deoxy (DNA)

Test system: human SMAD7 mRNA
Assay: Antisense inhibition of human SMAD7 mRNA expression in Hep3B cells by 5-10-5 MOE gapmers, single concentration, electroporation, RT-PCR (Example 1, Study 1 and 2)
Assay type: cell-based
Conditions: Study 2, electroporation with 15,000 nM antisense oligonucleotide, 5-10-5 MOE gapmers targeting SEQ ID NO: 1 and 2
Summary of the method: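 Hep3B cells (20,000/well) electroporated with 5-10-5 MOE gapmer at 5,000 nM or 15,000 nM for approximately 24 h. SMAD7 mRNA quantified by real-time PCR with primer probe set RTS5062 and normalized to RIBOGREEN total RNA. Values are percent inhibition relative to untreated controls.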

Compared with “771447 (eA*eA*e[5mC]*eA*e[5mC]*dA*dG*d[5mC]*d[5mC]*dT*d[5mC]*dT*dT*dG*dA*e[5mC]*eT*eT*e[5mC]*e[5mC]; antisense) [compound 771447]”, “771924 (antisense eT*e[5mC]*eG*e[5mC]*eT*dG*dA*dT*dA*dG*dT*dT*dA*dA*d[5mC]*e[5mC]*eT*e[5mC]*eT*eG) [compound 771924]” is lower in “% Inhibition” value: 19% for the first, 9% for the second.

Compared with “771951 (antisense e[5mC]*eT*eG*e[5mC]*eA*dG*dA*dG*d[5mC]*dA*d[5mC]*dA*dG*dA*dT*eG*e[5mC]*eA*eA*eA) [compound 771951]”, “771828 (antisense eG*e[5mC]*e[5mC]*e[5mC]*eT*dA*dG*dA*dA*d[5mC]*dT*dT*dG*dG*dG*e[5mC]*eA*eA*eG*eG) [compound 771828]” is lower in “% Inhibition” value: 9% for the first, 8% for the second.

Compared with “771440 (e[5mC]*eG*eG*e[5mC]*eT*dG*d[5mC]*dG*d[5mC]*dA*dG*dG*d[5mC]*dT*dG*e[5mC]*eG*e[5mC]*eG*e[5mC]; antisense) [compound 771440]”, “771747 (antisense eG*eT*eG*eT*eG*dT*dT*dT*d[5mC]*dA*dA*dA*dG*dG*dA*eA*eA*eA*eG*e[5mC]) [compound 771747]” is lower in “% Inhibition” value: 48% for the first, 10% for the second.

First: 771860 (antisense e[5mC]*eT*eG*eG*e[5mC]*dT*d[5mC]*dA*dG*dA*dG*dG*d[5mC]*dT*dG*e[5mC]*eA*eG*eT*eG) [compound 771860]
Second: 771846 (antisense e[5mC]*eA*eT*eA*eT*dT*dT*dG*d[5mC]*dT*d[5mC]*d[5mC]*dA*dT*dA*eA*eA*e[5mC]*eA*eA) [compound 771846]
The “% Inhibition” value of the first is higher: 20% for the first, 5% for the second.

Compared with “771759 (antisense eG*e[5mC]*eA*eT*eT*dA*d[5mC]*d[5mC]*dA*dG*dT*d[5mC]*d[5mC]*d[5mC]*d[5mC]*e[5mC]*eA*eT*eT*eA) [compound 771759]”, “771852 (antisense eA*eG*eA*eT*eT*dT*dA*dA*dA*dA*dT*dT*dA*dA*dA*eA*eA*eG*e[5mC]*eA) [compound 771852]” is lower in “% Inhibition” value: 26% for the first, 0% for the second.

Compared with “771755 (antisense eA*eA*eA*e[5mC]*eA*dT*dT*dT*dG*dG*d[5mC]*dA*d[5mC]*d[5mC]*d[5mC]*eA*eA*e[5mC]*eA*e[5mC]) [compound 771755]”, “771779 (antisense eA*e[5mC]*eA*e[5mC]*eA*d[5mC]*dT*dG*d[5mC]*dT*dG*d[5mC]*d[5mC]*dT*dT*eT*eT*e[5mC]*eT*e[5mC]) [compound 771779]” is lower in “% Inhibition” value: 35% for the first, 33% for the second.

First: 771622 (antisense eA*eA*e[5mC]*eA*e[5mC]*dA*d[5mC]*dA*dG*dG*dA*dT*dG*dG*dG*eA*eG*e[5mC]*eA*eG) [compound 771622]
Second: 771477 (antisense eT*eG*e[5mC]*eG*eG*dT*dT*dG*dT*dA*d[5mC]*dA*d[5mC]*d[5mC]*d[5mC]*eA*e[5mC]*eA*e[5mC]*eA) [compound 771477]
The “% inhibition of SMAD7 mRNA expression” value of the first is higher: 34% for the first, 20% for the second.

Compared with “771526 (antisense eG*eT*eT*eT*eG*d[5mC]*dA*dT*dG*dA*dA*dA*dA*dG*d[5mC]*eA*eA*eG*e[5mC]*eA) [compound 771526]”, “771686 (antisense eG*eT*eT*eT*eA*dT*d[5mC]*dT*dT*dT*dT*dT*dT*dA*dA*eT*eT*eT*eG*eG) [compound 771686]” is lower in “% inhibition of SMAD7 mRNA expression” value: 26% for the first, 0% for the second.

Going from “771614 (antisense eG*eT*eT*eT*eT*d[5mC]*dT*dA*dA*dG*dT*d[5mC]*d[5mC]*dG*dG*eG*eA*eA*eA*eA) [compound 771614]” to “771590 (antisense eG*e[5mC]*e[5mC]*eT*eG*dT*dG*dG*dA*d[5mC]*dA*dG*dG*d[5mC]*d[5mC]*e[5mC]*eG*eT*eG*eT) [compound 771590]”, the “% inhibition of SMAD7 mRNA expression” value falls from 25% to 14%.

First: 771628 (antisense e[5mC]*e[5mC]*eA*eG*eG*dG*dA*d[5mC]*dA*dT*d[5mC]*d[5mC]*d[5mC]*d[5mC]*dG*e[5mC]*eT*eT*eG*e[5mC]) [compound 771628]
Second: 771575 (antisense eA*e[5mC]*e[5mC]*eG*e[5mC]*dT*dT*dG*dG*dG*dA*d[5mC]*dT*dG*d[5mC]*eA*eA*eA*e[5mC]*e[5mC]) [compound 771575]
The “% inhibition of SMAD7 mRNA expression” value of the first is lower: 12% for the first, 47% for the second.

Going from “771540 (antisense eT*e[5mC]*eA*eT*eA*dA*dG*d[5mC]*dT*dA*dT*dT*dT*d[5mC]*dT*e[5mC]*eA*eA*eA*eG) [compound 771540]” to “771524 (antisense eT*eT*eG*e[5mC]*eA*dT*dG*dA*dA*dA*dA*dG*d[5mC]*dA*dA*eG*e[5mC]*eA*e[5mC]*eT) [compound 771524]”, the “% inhibition of SMAD7 mRNA expression” value rises from 0% to 19%.

For “771615 (antisense eA*eG*e[5mC]*eT*eG*dG*dT*dT*dT*dT*d[5mC]*dT*dA*dA*dG*eT*e[5mC]*e[5mC]*eG*eG) [compound 771615]”, the “% inhibition of SMAD7 mRNA expression” value was 45%.

Same assay, conditions: electroporation with 15,000 nM antisense oligonucleotide (Study 2), 5-10-5 MOE gapmers targeting SEQ ID NO: 1 and 2

Going from “771626 (antisense eG*e[5mC]*eA*eG*eA*dG*d[5mC]*dT*dT*dA*dA*d[5mC]*dA*d[5mC]*dA*e[5mC]*eA*eG*eG*eA) [compound 771626]” to “771674 (antisense eA*eT*eA*eA*eA*dT*d[5mC]*dT*d[5mC]*dA*dG*dG*dT*dT*dT*eT*eT*eT*eT*eT) [compound 771674]”, the “% inhibition of SMAD7 mRNA expression” value falls from 35% to 0%.

First: 771363 (antisense eT*e[5mC]*eA*eG*eG*d[5mC]*dT*dT*d[5mC]*dA*d[5mC]*dT*dG*d[5mC]*d[5mC]*e[5mC]*eA*eT*e[5mC]*eG) [compound 771363]
Second: 771872 (antisense eT*e[5mC]*e[5mC]*e[5mC]*e[5mC]*d[5mC]*dA*d[5mC]*d[5mC]*dG*d[5mC]*dG*d[5mC]*dA*dG*eG*eG*eA*e[5mC]*eA) [compound 771872]
The “% Inhibition of SMAD7 mRNA” value of the first is higher: 35% for the first, 11% for the second.

In the case of “771481 (antisense eG*e[5mC]*eA*eG*eG*d[5mC]*dT*dG*dT*dA*d[5mC]*dG*d[5mC]*d[5mC]*dT*eT*e[5mC]*eT*e[5mC]*eG) [compound 771481]”, the “% Inhibition of SMAD7 mRNA” value is reported as 26%.

Same assay, conditions: electroporation, 5,000 nM, approximately 24 hours, relative to untreated control cells, gapmers targeting SEQ ID NO: 1 and 2

Going from “771747 (antisense eG*eT*eG*eT*eG*dT*dT*dT*d[5mC]*dA*dA*dA*dG*dG*dA*eA*eA*eA*eG*e[5mC]) [compound 771747]” to “771755 (antisense eA*eA*eA*e[5mC]*eA*dT*dT*dT*dG*dG*d[5mC]*dA*d[5mC]*d[5mC]*d[5mC]*eA*eA*e[5mC]*eA*e[5mC]) [compound 771755]”, the “% inhibition of SMAD7 mRNA expression” value rises from 2% to 44%.

For “771779 (antisense eA*e[5mC]*eA*e[5mC]*eA*d[5mC]*dT*dG*d[5mC]*dT*dG*d[5mC]*d[5mC]*dT*dT*eT*eT*e[5mC]*eT*e[5mC]) [compound 771779]”, the “% inhibition of SMAD7 mRNA expression” value was 53%.

Same assay, conditions: electroporation, 15,000 nM antisense oligonucleotide (Study 2), 5-10-5 MOE gapmers targeting SEQ ID NO: 1 and 2

Going from “771842 (antisense eT*eT*eG*eT*eG*dT*dT*dA*dT*dG*dA*dA*dA*dA*d[5mC]*eA*eA*eA*eA*e[5mC]) [compound 771842]” to “771586 (antisense e[5mC]*e[5mC]*eT*eT*eG*dA*dT*dG*dA*dG*dG*dG*dA*dG*dA*eG*eG*eA*eG*eG) [compound 771586]”, the “% inhibition of SMAD7 mRNA expression” value rises from 6% to 48%.

Compared with “771577 (antisense eT*eG*e[5mC]*e[5mC]*eT*d[5mC]*dT*dG*d[5mC]*d[5mC]*d[5mC]*d[5mC]*dA*d[5mC]*dT*eG*eA*eG*e[5mC]*eG) [compound 771577]”, “771363 (antisense eT*e[5mC]*eA*eG*eG*d[5mC]*dT*dT*d[5mC]*dA*d[5mC]*dT*dG*d[5mC]*d[5mC]*e[5mC]*eA*eT*e[5mC]*eG) [compound 771363]” is lower in “% inhibition of SMAD7 mRNA expression” value: 21% for the first, 12% for the second.

“771872 (antisense eT*e[5mC]*e[5mC]*e[5mC]*e[5mC]*d[5mC]*dA*d[5mC]*d[5mC]*dG*d[5mC]*dG*d[5mC]*dA*dG*eG*eG*eA*e[5mC]*eA) [compound 771872]” and “771481 (antisense eG*e[5mC]*eA*eG*eG*d[5mC]*dT*dG*dT*dA*d[5mC]*dG*d[5mC]*d[5mC]*dT*eT*e[5mC]*eT*e[5mC]*eG) [compound 771481]” are the same in “% inhibition of SMAD7 mRNA expression” value: 0% for the first, 0% for the second.

First: 771357 (antisense eG*eA*eG*eT*e[5mC]*dA*dG*dG*d[5mC]*dT*d[5mC]*dA*dA*dT*dG*eA*eG*eA*e[5mC]*eT) [compound 771357]
Second: 771561 (antisense e[5mC]*eA*e[5mC]*eT*e[5mC]*d[5mC]*dT*dG*dA*d[5mC]*dA*dA*dG*dT*dG*eA*eA*eA*eT*eG) [compound 771561]
The “% inhibition of SMAD7 mRNA expression” value of the first is lower: 16% for the first, 30% for the second.

Compared with “771906 (antisense eA*e[5mC]*e[5mC]*e[5mC]*eT*dT*dG*d[5mC]*dT*dG*dG*dT*d[5mC]*dT*d[5mC]*eT*eT*eG*eT*eT) [compound 771906]”, “771833 (antisense eT*eT*eA*eA*eA*dG*dA*dA*dA*dA*dT*dG*dG*d[5mC]*d[5mC]*eT*eA*e[5mC]*eA*eT) [compound 771833]” is higher in “% inhibition of SMAD7 mRNA expression” value: 0% for the first, 21% for the second.

Going from “771482 (antisense e[5mC]*e[5mC]*eG*e[5mC]*eT*dG*d[5mC]*dA*dG*dG*d[5mC]*dT*dG*dT*dA*e[5mC]*eG*e[5mC]*e[5mC]*eT) [compound 771482]” to “771874 (antisense eA*eT*eT*eA*e[5mC]*dT*dT*d[5mC]*dT*dG*dT*d[5mC]*dT*dG*d[5mC]*e[5mC]*eT*e[5mC]*e[5mC]*eG) [compound 771874]”, the “% inhibition of SMAD7 mRNA expression” value falls from 38% to 34%.

Same assay, conditions: electroporation, 15,000 nM, approximately 24 hours, gapmers targeting SEQ ID NO: 3 and 4

“771343 (antisense eG*eA*e[5mC]*eA*eG*dT*d[5mC]*dA*dG*dT*dT*dG*dG*dT*dT*eT*eG*eA*eG*eA) [compound 771343]” was tested, and the “% inhibition of SMAD7 mRNA expression” value was 0%.

Same assay, conditions: electroporation, 15,000 nM, approximately 24 hours, relative to untreated control cells, gapmers targeting SEQ ID NO: 1 and 2

Going from “771669 (antisense eT*eT*eT*e[5mC]*eT*d[5mC]*dT*d[5mC]*dT*d[5mC]*dA*dA*dA*dG*d[5mC]*eA*e[5mC]*eT*eA*e[5mC]) [compound 771669]” to “771597 (antisense eG*eA*eA*eT*eA*dA*dG*dA*d[5mC]*dA*dA*dG*dG*dA*dT*eG*eA*eA*eA*eA) [compound 771597]”, the “% inhibition of SMAD7 mRNA expression” value falls from 55% to 0%.

Compared with “771557 (antisense eA*eT*eG*eA*e[5mC]*d[5mC]*dG*d[5mC]*d[5mC]*d[5mC]*d[5mC]*d[5mC]*d[5mC]*dT*dT*e[5mC]*eA*eT*eA*e[5mC]) [compound 771557]”, “771400 (antisense e[5mC]*eG*eA*e[5mC]*eA*dG*d[5mC]*dA*dG*d[5mC]*dA*dG*d[5mC]*dA*dG*e[5mC]*eA*eG*eG*eG) [compound 771400]” is higher in “% inhibition of SMAD7 mRNA expression” value: 19% for the first, 52% for the second.

In the case of “771376 (antisense eA*e[5mC]*eG*e[5mC]*eT*d[5mC]*dT*dA*dA*dA*d[5mC]*dA*dG*d[5mC]*dA*eT*eG*eA*eA*eA) [compound 771376]”, the “% inhibition of SMAD7 mRNA expression” value is reported as 17%.
